Assay results as given in the supplement of paper PMC10307832.

Columns and labels:
Test in all cases: relative viability (nuclei count vs DMSO), 5 days (fraction); higher = more cells survive
NCI-H650 = test system: NCI-H650
Summary of the method: (§1)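 Cells from lung cancer lines were seeded into 1536-well plates and, one day later, dosed by pin tool. Treatments were either a single drug or a fixed dose of an anchor drug with five library-drug doses (not always all listed) in √10 steps. After 5 days, nuclei were stained in a one-step fixation (final 0.05% Triton X-100, 1% formaldehyde, 1 ug/ml Hoechst) and counted on 4× images, and relative viability is the treated-to-vehicle nuclei ratio, as the median of duplicate plates.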

LCLC-97TM1 = test system: LCLC-97TM1
Summary of the method: as §1

RERF-LC-KJ = test system: RERF-LC-KJ
Summary of the method: as §1

NCI-H2087 = test system: NCI-H2087
Summary of the method: as §1

EPLC-272H = test system: EPLC-272H
Summary of the method: as §1

NCI-H23 = test system: NCI-H23
Summary of the method: as §1

NCI-H322M = test system: NCI-H322M
Summary of the method: as §1

LC-2-ad = test system: LC-2-ad
Summary of the method: as §1

H3255 = test system: H3255
Summary of the method: as §1

201T = test system: 201T
Summary of the method: as §1

HCC-78 = test system: HCC-78
Summary of the method: as §1

NCI-H647 = test system: NCI-H647
Summary of the method: as §1

COR-L 105 = test system: COR-L 105
Summary of the method: as §1

NCI-H2405 = test system: NCI-H2405
Summary of the method: as §1

NCI-H2347 = test system: NCI-H2347
Summary of the method: as §1

NCI-H1666 = test system: NCI-H1666
Summary of the method: as §1

NCI-H2126 = test system: NCI-H2126
Summary of the method: as §1

ChaGo-K-1 = test system: ChaGo-K-1
Summary of the method: as §1

NCI-H1915 = test system: NCI-H1915
Summary of the method: as §1

HCC-827 = test system: HCC-827
Summary of the method: as §1

NCI-H520 = test system: NCI-H520
Summary of the method: as §1

PC-14 = test system: PC-14
Summary of the method: as §1

NCI-H661 = test system: NCI-H661
Summary of the method: as §1

Clc1ccc(Nc2nnc(Cc3ccncc3)c3ccccc23)cc1 [Vatalanib] + COc1cc2c(Oc3ccc(NC(=O)C4(C(=O)Nc5ccc(F)cc5)CC4)cc3F)ccnc2cc1OCCCN1CCOCC1 [Foretinib] (partner 0.25 µM)
relative viability (NCI-H650; first compound 0.04 µM): 1.08 | relative viability (NCI-H650; first compound 0.1265 µM): 1.01 | relative viability (NCI-H650; first compound 1.265 µM): 0.973 | relative viability (NCI-H650; first compound 4 µM): 0.978 | relative viability (LCLC-97TM1; first compound 0.04 µM): 0.975 | relative viability (LCLC-97TM1; first compound 0.1265 µM): 0.833 | relative viability (LCLC-97TM1; first compound 0.4 µM): 1.01 | relative viability (LCLC-97TM1; first compound 1.265 µM): 0.949 | relative viability (LCLC-97TM1; first compound 4 µM): 0.835 | relative viability (RERF-LC-KJ; first compound 0.04 µM): 0.889 | relative viability (RERF-LC-KJ; first compound 0.1265 µM): 0.927 | relative viability (RERF-LC-KJ; first compound 0.4 µM): 0.925 | relative viability (RERF-LC-KJ; first compound 1.265 µM): 0.89 | relative viability (RERF-LC-KJ; first compound 4 µM): 0.766 | relative viability (NCI-H2087; first compound 0.04 µM): 1.15 | relative viability (NCI-H2087; first compound 0.1265 µM): 1.08 | relative viability (NCI-H2087; first compound 0.4 µM): 1.27 | relative viability (NCI-H2087; first compound 1.265 µM): 0.958 | relative viability (NCI-H2087; first compound 4 µM): 1.03 | relative viability (EPLC-272H; first compound 0.04 µM): 0.645 | relative viability (EPLC-272H; first compound 0.1265 µM): 0.711 | relative viability (EPLC-272H; first compound 0.4 µM): 0.763 | relative viability (EPLC-272H; first compound 1.265 µM): 0.669 | relative viability (EPLC-272H; first compound 4 µM): 0.841 | relative viability (NCI-H23; first compound 0.04 µM): 0.928 | relative viability (NCI-H23; first compound 0.1265 µM): 0.945 | relative viability (NCI-H23; first compound 0.4 µM): 0.931 | relative viability (NCI-H23; first compound 1.265 µM): 0.796 | relative viability (NCI-H23; first compound 4 µM): 1.02 | relative viability (NCI-H322M; first compound 0.04 µM): 1 | relative viability (NCI-H322M; first compound 0.1265 µM): 0.974 | relative viability (NCI-H322M; first compound 0.4 µM): 1.03 | relative viability (NCI-H322M; first compound 1.265 µM): 0.878 | relative viability (NCI-H322M; first compound 4 µM): 0.896 | relative viability (LC-2-ad; first compound 0.04 µM): 0.999 | relative viability (LC-2-ad; first compound 0.1265 µM): 0.777 | relative viability (LC-2-ad; first compound 1.265 µM): 0.852 | relative viability (LC-2-ad; first compound 4 µM): 0.87 | relative viability (H3255; first compound 0.04 µM): 0.763 | relative viability (H3255; first compound 0.1265 µM): 0.917 | relative viability (H3255; first compound 0.4 µM): 0.64 | relative viability (H3255; first compound 1.265 µM): 0.829 | relative viability (H3255; first compound 4 µM): 0.789 | relative viability (201T; first compound 0.04 µM): 1.17 | relative viability (201T; first compound 0.1265 µM): 0.976 | relative viability (201T; first compound 0.4 µM): 1.16 | relative viability (201T; first compound 1.265 µM): 1.09 | relative viability (201T; first compound 4 µM): 0.984 | relative viability (HCC-78; first compound 0.04 µM): 0.531 | relative viability (HCC-78; first compound 0.1265 µM): 0.551 | relative viability (HCC-78; first compound 0.4 µM): 0.535 | relative viability (HCC-78; first compound 1.265 µM): 0.503 | relative viability (HCC-78; first compound 4 µM): 0.47 | relative viability (NCI-H647; first compound 0.04 µM): 1.12 | relative viability (NCI-H647; first compound 0.1265 µM): 1.2 | relative viability (NCI-H647; first compound 0.4 µM): 1.28 | relative viability (NCI-H647; first compound 1.265 µM): 1.18 | relative viability (NCI-H647; first compound 4 µM): 1.1 | relative viability (COR-L 105; first compound 0.04 µM): 0.885 | relative viability (COR-L 105; first compound 0.1265 µM): 1.23 | relative viability (COR-L 105; first compound 0.4 µM): 1.24 | relative viability (COR-L 105; first compound 1.265 µM): 0.785 | relative viability (COR-L 105; first compound 4 µM): 1.12 | relative viability (NCI-H2405; first compound 0.04 µM): 1.04 | relative viability (NCI-H2405; first compound 0.1265 µM): 1.06 | relative viability (NCI-H2405; first compound 1.265 µM): 1.02 | relative viability (NCI-H2405; first compound 4 µM): 0.965 | relative viability (NCI-H2347; first compound 0.1265 µM): 0.676 | relative viability (NCI-H2347; first compound 0.4 µM): 0.656 | relative viability (NCI-H2347; first compound 1.265 µM): 1.05 | relative viability (NCI-H2347; first compound 4 µM): 0.785 | relative viability (NCI-H1666; first compound 0.04 µM): 1 | relative viability (NCI-H1666; first compound 0.1265 µM): 1.02 | relative viability (NCI-H1666; first compound 0.4 µM): 0.997 | relative viability (NCI-H1666; first compound 1.265 µM): 0.962 | relative viability (NCI-H1666; first compound 4 µM): 0.925 | relative viability (NCI-H2126; first compound 0.04 µM): 1.15 | relative viability (NCI-H2126; first compound 0.1265 µM): 1.23 | relative viability (NCI-H2126; first compound 0.4 µM): 1.25 | relative viability (NCI-H2126; first compound 1.265 µM): 1.1 | relative viability (NCI-H2126; first compound 4 µM): 1.12 | relative viability (ChaGo-K-1; first compound 0.04 µM): 1 | relative viability (ChaGo-K-1; first compound 0.1265 µM): 0.916 | relative viability (ChaGo-K-1; first compound 0.4 µM): 0.976 | relative viability (ChaGo-K-1; first compound 1.265 µM): 0.881 | relative viability (ChaGo-K-1; first compound 4 µM): 0.893 | relative viability (NCI-H1915; first compound 0.04 µM): 1.09 | relative viability (NCI-H1915; first compound 0.1265 µM): 1.04 | relative viability (NCI-H1915; first compound 0.4 µM): 1.11 | relative viability (NCI-H1915; first compound 1.265 µM): 1.05 | relative viability (NCI-H1915; first compound 4 µM): 1.13 | relative viability (HCC-827; first compound 0.04 µM): 1.07 | relative viability (HCC-827; first compound 0.1265 µM): 1.09 | relative viability (HCC-827; first compound 0.4 µM): 0.942 | relative viability (HCC-827; first compound 1.265 µM): 0.927 | relative viability (HCC-827; first compound 4 µM): 1.03 | relative viability (NCI-H520; first compound 0.04 µM): 0.875 | relative viability (NCI-H520; first compound 0.1265 µM): 0.662 | relative viability (NCI-H520; first compound 0.4 µM): 0.781 | relative viability (NCI-H520; first compound 1.265 µM): 0.842 | relative viability (NCI-H520; first compound 4 µM): 0.697 | relative viability (PC-14; first compound 0.04 µM): 0.981 | relative viability (PC-14; first compound 0.1265 µM): 0.855 | relative viability (PC-14; first compound 0.4 µM): 0.85 | relative viability (PC-14; first compound 1.265 µM): 0.895 | relative viability (PC-14; first compound 4 µM): 0.932 | relative viability (NCI-H661; first compound 0.04 µM): 1 | relative viability (NCI-H661; first compound 0.1265 µM): 1.04 | relative viability (NCI-H661; first compound 0.4 µM): 1.07 | relative viability (NCI-H661; first compound 1.265 µM): 0.975 | relative viability (NCI-H661; first compound 4 µM): 0.989
